Data: ChEMBL document CHEMBL5055617, “Conformational Constraint between Aromatic Residue Side Chains in the "Message" Sequence of the Peptide Arodyn Using Ring Closing Metathesis Results in a Potent and Selective Kappa Opioid Receptor Antagonist” (J Med Chem, 2021)
Square brackets hold non-standard residues; d marks the D form. Peptide text beside a SMILES is read from it.

Experiments:
Homo sapiens = organism: Homo sapiens; assay: Selectivity index, ratio of Ki for displacement of [3H]-DAMGO from MOR (unknown origin) expressed in CHO cells to Ki for displacement of [3H]-Diprenorphine from KOR (unknown origin) expressed in CHO cells; format: cell-based
Mu-type opioid receptor = Mu-type opioid receptor (Homo sapiens, UniProt P35372); assay: Displacement of [3H]-DAMGO from mu opioid receptor (unknown origin) expressed in CHO cells incubated for 90 mins in presence of peptidase inhibitors; format: cell-based
Chain of Mu-type opioid receptor (P35372 whole entry): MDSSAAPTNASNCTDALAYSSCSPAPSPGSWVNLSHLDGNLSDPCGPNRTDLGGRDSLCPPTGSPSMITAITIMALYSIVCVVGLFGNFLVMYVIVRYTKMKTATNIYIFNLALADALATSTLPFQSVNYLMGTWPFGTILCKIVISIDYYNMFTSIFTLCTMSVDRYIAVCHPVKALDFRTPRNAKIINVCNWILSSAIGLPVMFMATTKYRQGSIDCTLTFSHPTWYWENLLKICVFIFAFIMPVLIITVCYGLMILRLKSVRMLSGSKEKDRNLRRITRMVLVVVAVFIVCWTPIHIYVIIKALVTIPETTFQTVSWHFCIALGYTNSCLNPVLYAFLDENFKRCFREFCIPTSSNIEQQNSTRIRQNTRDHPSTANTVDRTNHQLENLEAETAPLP

[1] = target: T1, Kappa-type opioid receptor (Homo sapiens, UniProt P41145); assay: Displacement of [3H]-Diprenorphine from kappa opiod receptor (unknown origin) expressed in CHO cells incubated for 90 mins in presence of peptidase inhibitors; format: cell-based
T1 sequence (P41145 whole entry): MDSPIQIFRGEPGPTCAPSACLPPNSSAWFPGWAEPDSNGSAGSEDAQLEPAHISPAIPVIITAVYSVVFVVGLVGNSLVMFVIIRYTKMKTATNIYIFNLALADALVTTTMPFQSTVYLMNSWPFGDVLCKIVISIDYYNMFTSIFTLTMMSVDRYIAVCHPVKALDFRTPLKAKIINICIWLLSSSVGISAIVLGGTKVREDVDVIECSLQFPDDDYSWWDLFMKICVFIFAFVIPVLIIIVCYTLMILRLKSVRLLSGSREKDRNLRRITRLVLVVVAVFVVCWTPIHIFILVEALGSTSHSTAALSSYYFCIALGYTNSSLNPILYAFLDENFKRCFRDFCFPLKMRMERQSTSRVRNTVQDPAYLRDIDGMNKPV

[2] = target: T1, Kappa-type opioid receptor; assay: Antagonist activity at kappa opioid receptor (unkown origin) expressed in CHO cell membranes assessed as inhibition of Dyn A-(1-13)NH2 stimulated [35S]GTPgammaS binding incubated for 90 mins by liquid scintillation counting method; format: functional; conditions: Membrane, filed as antagonist

SMILES | Ratio Ki (Homo sapiens) | Ki (Mu-type opioid receptor) | Ki [1] | Kb [2]
C=CCOc1ccc(C[C@H](NC(=O)[C@H](Cc2cccc(OCC=C)c2)NC(C)=O)C(=O)N[C@@H](Cc2ccccc2)C(=O)N[C@@H](CCCNC(=N)N)C(=O)N[C@@H](CC(C)C)C(=O)N[C@@H](CCCNC(=N)N)C(=O)N[C@@H](CCCNC(=N)N)C(=O)N[C@H](C)C(=O)N[C@@H](CCCNC(=N)N)C(=O)N2CCC[C@H]2C(=O)N[C@@H](CCCCN)C(N)=O)cc1 | 11 | 478 nM | 43.2 nM | 
C=CCOc1cccc(C[C@H](NC(=O)[C@H](Cc2ccccc2)NC(C)=O)C(=O)N[C@@H](Cc2cccc(OCC=C)c2)C(=O)N[C@@H](CCCNC(=N)N)C(=O)N[C@@H](CC(C)C)C(=O)N[C@@H](CCCNC(=N)N)C(=O)N[C@@H](CCCNC(=N)N)C(=O)N[C@H](C)C(=O)N[C@@H](CCCNC(=N)N)C(=O)N2CCC[C@H]2C(=O)N[C@@H](CCCCN)C(N)=O)c1 | 255 | 838 nM | 3.3 nM | 
C=CCOc1ccc(C[C@H](NC(C)=O)C(=O)N[C@@H](Cc2ccc(OCC=C)cc2)C(=O)N[C@@H](Cc2ccccc2)C(=O)N[C@@H](CCCNC(=N)N)C(=O)N[C@@H](CC(C)C)C(=O)N[C@@H](CCCNC(=N)N)C(=O)N[C@@H](CCCNC(=N)N)C(=O)N[C@H](C)C(=O)N[C@@H](CCCNC(=N)N)C(=O)N2CCC[C@H]2C(=O)N[C@@H](CCCCN)C(N)=O)cc1 | 18 | 221 nM | 12.1 nM | 
C=CCOc1ccc(C[C@H](NC(=O)[C@H](Cc2ccccc2)NC(C)=O)C(=O)N[C@@H](Cc2ccc(OCC=C)cc2)C(=O)N[C@@H](CCCNC(=N)N)C(=O)N[C@@H](CC(C)C)C(=O)N[C@@H](CCCNC(=N)N)C(=O)N[C@@H](CCCNC(=N)N)C(=O)N[C@H](C)C(=O)N[C@@H](CCCNC(=N)N)C(=O)N2CCC[C@H]2C(=O)N[C@@H](CCCCN)C(N)=O)cc1 | 65 | 1220 nM | 18.9 nM | 
C=CCOc1ccc(C[C@H](NC(=O)[C@H](Cc2ccccc2)NC(C)=O)C(=O)N[C@@H](Cc2cccc(OCC=C)c2)C(=O)N[C@@H](CCCNC(=N)N)C(=O)N[C@@H](CC(C)C)C(=O)N[C@@H](CCCNC(=N)N)C(=O)N[C@@H](CCCNC(=N)N)C(=O)N[C@H](C)C(=O)N[C@@H](CCCNC(=N)N)C(=O)N2CCC[C@H]2C(=O)N[C@@H](CCCCN)C(N)=O)cc1 | 118 | 1380 nM | 11.7 nM | 
CC(=O)N[C@@H](Cc1ccccc1)C(=O)N[C@H]1Cc2ccc(cc2)OC/C=C/COc2cccc(c2)C[C@@H](C(=O)N[C@@H](CCCNC(=N)N)C(=O)N[C@@H](CC(C)C)C(=O)N[C@@H](CCCNC(=N)N)C(=O)N[C@@H](CCCNC(=N)N)C(=O)N[C@H](C)C(=O)N[C@@H](CCCNC(=N)N)C(=O)N2CCC[C@H]2C(=O)N[C@@H](CCCCN)C(N)=O)NC1=O | 31 | 607 nM | 19.8 nM | 
CC(=O)N[C@H]1Cc2ccc(cc2)OC/C=C/COc2ccc(cc2)C[C@@H](C(=O)N[C@@H](Cc2ccccc2)C(=O)N[C@@H](CCCNC(=N)N)C(=O)N[C@@H](CC(C)C)C(=O)N[C@@H](CCCNC(=N)N)C(=O)N[C@@H](CCCNC(=N)N)C(=O)N[C@H](C)C(=O)N[C@@H](CCCNC(=N)N)C(=O)N2CCC[C@H]2C(=O)N[C@@H](CCCCN)C(N)=O)NC1=O | 123 | 1430 nM | 11.7 nM | 288 nM
C=CCOc1cccc(C[C@H](NC(C)=O)C(=O)N[C@@H](Cc2cccc(OCC=C)c2)C(=O)N[C@@H](Cc2ccccc2)C(=O)N[C@@H](CCCNC(=N)N)C(=O)N[C@@H](CC(C)C)C(=O)N[C@@H](CCCNC(=N)N)C(=O)N[C@@H](CCCNC(=N)N)C(=O)N[C@H](C)C(=O)N[C@@H](CCCNC(=N)N)C(=O)N2CCC[C@H]2C(=O)N[C@@H](CCCCN)C(N)=O)c1 | 7 | 491 nM | 65.8 nM | 
C=CCOc1ccc(C[C@H](NC(=O)[C@H](Cc2cccc(OCC=C)c2)NC(=O)[C@H](Cc2ccccc2)NC(C)=O)C(=O)N[C@@H](CCCNC(=N)N)C(=O)N[C@@H](CC(C)C)C(=O)N[C@@H](CCCNC(=N)N)C(=O)N[C@@H](CCCNC(=N)N)C(=O)N[C@H](C)C(=O)N[C@@H](CCCNC(=N)N)C(=O)N2CCC[C@H]2C(=O)N[C@@H](CCCCN)C(N)=O)cc1 | 32 | 1330 nM | 41.2 nM | 
C=CCOc1ccc(C[C@H](NC(C)=O)C(=O)N[C@@H](Cc2cccc(OCC=C)c2)C(=O)N[C@@H](Cc2ccccc2)C(=O)N[C@@H](CCCNC(=N)N)C(=O)N[C@@H](CC(C)C)C(=O)N[C@@H](CCCNC(=N)N)C(=O)N[C@@H](CCCNC(=N)N)C(=O)N[C@H](C)C(=O)N[C@@H](CCCNC(=N)N)C(=O)N2CCC[C@H]2C(=O)N[C@@H](CCCCN)C(N)=O)cc1 | 8 | 490 nM | 62.2 nM | 
CC(=O)N[C@@H](Cc1ccccc1)C(=O)N[C@H]1Cc2ccc(cc2)OC/C=C/COc2ccc(cc2)C[C@@H](C(=O)N[C@@H](CCCNC(=N)N)C(=O)N[C@@H](CC(C)C)C(=O)N[C@@H](CCCNC(=N)N)C(=O)N[C@@H](CCCNC(=N)N)C(=O)N[C@H](C)C(=O)N[C@@H](CCCNC(=N)N)C(=O)N2CCC[C@H]2C(=O)N[C@@H](CCCCN)C(N)=O)NC1=O | 93 | 1370 nM | 14.7 nM | 15 nM
CC(=O)N[C@H]1Cc2ccc(cc2)OC/C=C/COc2cccc(c2)C[C@@H](C(=O)N[C@@H](Cc2ccccc2)C(=O)N[C@@H](CCCNC(=N)N)C(=O)N[C@@H](CC(C)C)C(=O)N[C@@H](CCCNC(=N)N)C(=O)N[C@@H](CCCNC(=N)N)C(=O)N[C@H](C)C(=O)N[C@@H](CCCNC(=N)N)C(=O)N2CCC[C@H]2C(=O)N[C@@H](CCCCN)C(N)=O)NC1=O | 9 | 501 nM | 56.7 nM | 
CC(=O)N[C@@H](Cc1ccccc1)C(=O)N[C@H]1Cc2cccc(c2)OC/C=C\COc2cccc(c2)C[C@@H](C(=O)N[C@@H](CCCNC(=N)N)C(=O)N[C@@H](CC(C)C)C(=O)N[C@@H](CCCNC(=N)N)C(=O)N[C@@H](CCCNC(=N)N)C(=O)N[C@H](C)C(=O)N[C@@H](CCCNC(=N)N)C(=O)N2CCC[C@H]2C(=O)N[C@@H](CCCCN)C(N)=O)NC1=O | 54 | 828 nM | 15.4 nM | 
CC(=O)N[C@@H](Cc1ccccc1)C(=O)N[C@H]1Cc2cccc(c2)OC/C=C/COc2ccc(cc2)C[C@@H](C(=O)N[C@@H](CCCNC(=N)N)C(=O)N[C@@H](CC(C)C)C(=O)N[C@@H](CCCNC(=N)N)C(=O)N[C@@H](CCCNC(=N)N)C(=O)N[C@H](C)C(=O)N[C@@H](CCCNC(=N)N)C(=O)N2CCC[C@H]2C(=O)N[C@@H](CCCCN)C(N)=O)NC1=O | 50 | 1960 nM | 39.2 nM | 
CC(=O)N[C@H]1Cc2cccc(c2)OC/C=C/COc2ccc(cc2)C[C@@H](C(=O)N[C@@H](Cc2ccccc2)C(=O)N[C@@H](CCCNC(=N)N)C(=O)N[C@@H](CC(C)C)C(=O)N[C@@H](CCCNC(=N)N)C(=O)N[C@@H](CCCNC(=N)N)C(=O)N[C@H](C)C(=O)N[C@@H](CCCNC(=N)N)C(=O)N2CCC[C@H]2C(=O)N[C@@H](CCCCN)C(N)=O)NC1=O | 22 | 657 nM | 29.2 nM | 
CC(=O)N[C@@H](Cc1ccccc1)C(=O)N[C@@H](Cc1ccccc1)C(=O)N[C@@H](Cc1ccccc1)C(=O)N[C@@H](CCCNC(=N)N)C(=O)N[C@@H](CC(C)C)C(=O)N[C@@H](CCCNC(=N)N)C(=O)N[C@@H](CCCNC(=N)N)C(=O)N[C@H](C)C(=O)N[C@@H](CCCNC(=N)N)C(=O)N1CCC[C@H]1C(=O)N[C@@H](CCCCN)C(N)=O (Ac-FFFRLRR[dA]RPK-NH2) | 174 | 1740 nM |  | 
CC(=O)N[C@H]1Cc2cccc(c2)OC/C=C/COc2cccc(c2)C[C@@H](C(=O)N[C@@H](Cc2ccccc2)C(=O)N[C@@H](CCCNC(=N)N)C(=O)N[C@@H](CC(C)C)C(=O)N[C@@H](CCCNC(=N)N)C(=O)N[C@@H](CCCNC(=N)N)C(=O)N[C@H](C)C(=O)N[C@@H](CCCNC(=N)N)C(=O)N2CCC[C@H]2C(=O)N[C@@H](CCCCN)C(N)=O)NC1=O | 24 | 1630 nM | 68.2 nM | 
